# Assay results taken from US20260274892A1, “MACROCYCLIC BROAD SPECTRUM ANTIBIOTICS” (RQx Pharmaceuticals, Inc., priority 2017, published 2026).
# How the values were obtained:
# [1] = tested on: Methicillin Resistant Staphylococcus aureus strain USA 200; assay: Minimum inhibitory concentration (MIC), CLSI broth micro-dilution, S. aureus; format: cell-based; settings: Staphylococcus aureus, MRSA / USA200; Table 6; MRSA USA 200; cation adjusted Mueller Hinton Broth + 0.002% Tween-80; 35° C., 22 hours
# How it was run: (§1)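 Colonies grown 20 h at 35° C on Trypticase Soy agar (MRSA) or Luria agar (E. coli) were suspended in cation-adjusted Mueller Hinton broth with 0.002% Tween-80. Suspensions were added at OD600 0.0005 to 10-point twofold compound dilutions, then incubated 22 h at 35° C.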
# [2] = tested on: Escherichia coli ATCC 25922; assay: Minimum inhibitory concentration (MIC), CLSI broth micro-dilution, E. coli; format: cell-based; settings: Escherichia coli, ATCC25922, 22 h, Table 6, cation adjusted Mueller Hinton Broth + 0.002% Tween-80, 35° C.
# How it was run: as §1
SMILES,MIC [1] [µM],MIC [2] [µM]
"CCCCCCCCc1ccc(C(=O)N[C@@H](CCC(=O)NCCO)C(=O)N(C)[C@@H]2C(=O)N[C@@H](C)C(=O)N[C@H](C(=O)NCC#N)Cc3ccc(OCCN)c(c3)-c3cc2ccc3OCCN)c(C)c1 (racemic) [Compound 446, rac-(2S)-N′-(2-hydroxyethyl)-N-methyl-2-[(2-methyl-4-octyl-benzoyl)amino]-N-[rac-(7S,10S,13S)-3,18-bis(2-aminoethoxy)-13-(cyanomethylcarbamoyl)-10-methyl-8,11-dioxo-9,12-diazatricyclo[13.3.1.12,6]icosa-1(19),2,4,6(20),15,17-hexaen-7-yl]pentanediamide]",0.032,4.1
"CCCCCCCCc1ccc(C(=O)N[C@@H](CCC(=O)NC2COC2)C(=O)N(C)[C@@H]2C(=O)N[C@@H](C)C(=O)N[C@H](C(=O)NCC#N)Cc3ccc(OCCN)c(c3)-c3cc2ccc3OCCN)c(C)c1 (racemic) [Compound 447, rac-(2S)-N-methyl-2-[(2-methyl-4-octyl-benzoyl)amino]-N′-(oxetan-3-yl)-N-[rac-(7S,10S,13S)-3,18-bis(2-aminoethoxy)-13-(cyanomethylcarbamoyl)-10-methyl-8,11-dioxo-9,12-diazatricyclo[13.3.1.12,6]icosa-1(19),2,4,6(20),15,17-hexaen-7-yl]pentanediamide]",0.033,4.2
"CCCCCCCCc1ccc(C(=O)N[C@@H](CCC(=O)NC(CO)CO)C(=O)N(C)[C@@H]2C(=O)N[C@@H](C)C(=O)N[C@H](C(=O)NCC#N)Cc3ccc(OCCN)c(c3)-c3cc2ccc3OCCN)c(C)c1 (racemic) [Compound 448, rac-(2S)-N′-[2-hydroxy-1-(hydroxymethyl)ethyl]-N-methyl-2-[(2-methyl-4-octyl-benzoyl)amino]-N-[rac-(7S,10S,13S)-3,18-bis(2-aminoethoxy)-13-(cyanomethylcarbamoyl)-10-methyl-8,11-dioxo-9,12-diazatricyclo[13.3.1.12,6]icosa-1(19),2,4,6(20),15,17-hexaen-7-yl]pentanediamide]",0.13,4.1
"CCCCCCCc1ccc(C(=O)N[C@@H](CNC)C(=O)N(C)[C@@H]2C(=O)N[C@@H](C)C(=O)N[C@H](C(=O)NCC#N)Cc3ccc(OCCN)c(c3)-c3cc2ccc3OCCN)c(C)c1 (racemic) [Compound 453, rac-(8S,11S,14S)-3,18-bis(2-aminoethoxy)-N-(cyanomethyl)-11-methyl-14-[methyl-[rac-(2S)-2-[(4-heptyl-2-methyl-benzoyl)amino]-3-(methylamino)propanoyl]amino]-10,13-dioxo-9,12-diazatricyclo[13.3.1.12,6]icosa-1(18),2(20),3,5,15(19),16-hexaene-8-carboxamide]",0.026,1.1
"CCCCCCCc1ccc(C(=O)N[C@@H](CS)C(=O)N(C)[C@@H]2C(=O)N[C@@H](C)C(=O)N[C@H](C(=O)NCC#N)Cc3ccc(OCCN)c(c3)-c3cc2ccc3OCCN)c(C)c1 (racemic) [Compound 454, rac-(8S,11S,14S)-3,18-bis(2-aminoethoxy)-N-(cyanomethyl)-11-methyl-14-[methyl-[rac-(2R)-2-[(4-heptyl-2-methyl-benzoyl)amino]-3-sulfanyl-propanoyl]amino]-10,13-dioxo-9,12-diazatricyclo[13.3.1.12,6]icosa-1(18),2(20),3,5,15(19),16-hexaene-8-carboxamide]",0.55,4.4
"CCCCCCCc1ccc(C(=O)N[C@H](CCN)C(=O)N(C)[C@@H]2C(=O)N[C@@H](C)C(=O)N[C@H](C(=O)NCC#N)Cc3ccc(OCCN)c(c3)-c3cc2ccc3OCCN)c(C)c1 (racemic) [Compound 456, rac-(8S,11S,14S)-3,18-bis(2-aminoethoxy)-N-(cyanomethyl)-11-methyl-14-[methyl-[rac-(2R)-4-amino-2-[(4-heptyl-2-methyl-benzoyl)amino]butanoyl]amino]-10,13-dioxo-9,12-diazatricyclo[13.3.1.12,6]icosa-1(18),2(20),3,5,15(19),16-hexaene-8-carboxamide]",0.56,3.3
"CCCCCCc1ccc(C(=O)N2C[C@@H](CN)C[C@H]2C(=O)N(C)[C@@H]2C(=O)N[C@@H](C)C(=O)N[C@H](C(=O)NCC#N)Cc3ccc(OCCN)c(c3)-c3cc2ccc3OCCN)c(C)c1 (racemic) [Compound 461, rac-(8S,11S,14S)-3,18-bis(2-aminoethoxy)-N-(cyanomethyl)-11-methyl-14-[methyl-[rac-(2S,4R)-4-(aminomethyl)-1-(4-hexyl-2-methyl-benzoyl)pyrrolidine-2-carbonyl]amino]-10,13-dioxo-9,12-diazatricyclo[13.3.1.12,6]icosa-1(18),2(20),3,5,15(19),16-hexaene-8-carboxamide]",0.051,1.1

# Further lines, results first:
MIC [1] [µM],MIC [2] [µM],SMILES
0.047,0.76,"CCCCCc1ccc(-c2ncc(C(=O)N[C@@H](CCNC(N)=O)C(=O)N(C)[C@@H]3C(=O)N[C@@H](C)C(=O)N[C@H](C(=O)NCC#N)Cc4ccc(OCCN)c(c4)-c4cc3ccc4OCCN)c(C)n2)cc1 (racemic) [Compound 451, rac-(8S,11S,14S)-3,18-bis(2-aminoethoxy)-N-(cyanomethyl)-11-methyl-14-[methyl-[rac-(2S)-2-[[4-methyl-2-(4-pentylphenyl)pyrimidine-5-carbonyl]amino]-4-ureido-butanoyl]amino]-10,13-dioxo-9,12-diazatricyclo[13.3.1.12,6]icosa-1(18),2(20),3,5,15(19),16-hexaene-8-carboxamide]"
0.13,1.3,"Cc1nc(-c2ccc(C(C)(C)C)cc2)ncc1C(=O)N[C@@H](CCNC(N)=O)C(=O)N(C)[C@@H]1C(=O)N[C@@H](C)C(=O)N[C@H](C(=O)NCC#N)Cc2ccc(OCCN)c(c2)-c2cc1ccc2OCCN (racemic) [Compound 452, rac-(8S,11S,14S)-3,18-bis(2-aminoethoxy)-N-(cyanomethyl)-11-methyl-14-[methyl-[rac-(2S)-2-[[2-(4-tert-butylphenyl)-4-methyl-pyrimidine-5-carbonyl]amino]-4-ureido-butanoyl]amino]-10,13-dioxo-9,12-diazatricyclo[13.3.1.12,6]icosa-1(18),2(20),3,5,15(19),16-hexaene-8-carboxamide]"
0.025,0.27,"Cc1nc(-c2ccc(C(C)(C)C)cc2)ncc1C(=O)N[C@@H](CN)C(=O)N(C)[C@@H]1C(=O)N[C@@H](C)C(=O)N[C@H](C(=O)NCC#N)Cc2ccc(OCCN)c(c2)-c2cc1ccc2OCCN (racemic) [Compound 457, rac-(8S,11S,14S)-3,18-bis(2-aminoethoxy)-N-(cyanomethyl)-11-methyl-14-[methyl-[rac-(2S)-3-amino-2-[[2-(4-tert-butylphenyl)-4-methyl-pyrimidine-5-carbonyl]amino]propanoyl]amino]-10,13-dioxo-9,12-diazatricyclo[13.3.1.12,6]icosa-1(18),2(20),3,5,15(19),16-hexaene-8-carboxamide]"
0.033,1.1,"Cc1nc(-c2ccc(CC(C)C)cc2)ncc1C(=O)N[C@@H](CCO)C(=O)N(C)[C@@H]1C(=O)N[C@@H](C)C(=O)N[C@H](C(=O)NCC#N)Cc2ccc(OCCN)c(c2)-c2cc1ccc2OCCN (racemic) [Compound 458, rac-(8S,11S,14S)-3,18-bis(2-aminoethoxy)-N-(cyanomethyl)-11-methyl-14-[methyl-[rac-(2S)-4-hydroxy-2-[[2-(4-isobutylphenyl)-4-methyl-pyrimidine-5-carbonyl]amino]butanoyl]amino]-10,13-dioxo-9,12-diazatricyclo[13.3.1.12,6]icosa-1(18),2(20),3,5,15(19),16-hexaene-8-carboxamide]"
0.083,0.71,"Cc1nc(-c2ccc(C(C)(C)C)cc2)ncc1C(=O)N[C@@H](CCO)C(=O)N(C)[C@@H]1C(=O)N[C@@H](C)C(=O)N[C@H](C(=O)NCC#N)Cc2ccc(OCCN)c(c2)-c2cc1ccc2OCCN (racemic) [Compound 459, rac-(8S,11S,14S)-3,18-bis(2-aminoethoxy)-N-(cyanomethyl)-11-methyl-14-[methyl-[rac-(2S)-2-[[2-(4-tert-butylphenyl)-4-methyl-pyrimidine-5-carbonyl]amino]-4-hydroxy-butanoyl]amino]-10,13-dioxo-9,12-diazatricyclo[13.3.1.12,6]icosa-1(18),2(20),3,5,15(19),16-hexaene-8-carboxamide]"
0.027,5.4,"Cc1nc(-c2ccc(C(C)(C)C)cc2)ncc1C(=O)N[C@@H](CNC(=N)N)C(=O)N(C)[C@@H]1C(=O)N[C@@H](C)C(=O)N[C@H](C(=O)NCC#N)Cc2ccc(OCCN)c(c2)-c2cc1ccc2OCCN (racemic) [Compound 462, rac-(8S,11S,14S)-3,18-bis(2-aminoethoxy)-N-(cyanomethyl)-11-methyl-14-[methyl-[rac-(2S)-2-[[2-(4-tert-butylphenyl)-4-methyl-pyrimidine-5-carbonyl]amino]-3-guanidino-propanoyl]amino]-10,13-dioxo-9,12-diazatricyclo[13.3.1.12,6]icosa-1(18),2(20),3,5,15(19),16-hexaene-8-carboxamide]"
0.063,4,"Cc1nc(-c2ccc(C(C)(C)C)cc2)nc(C)c1C(=O)N[C@@H](C)C(=O)N[C@@H](CCN)C(=O)N(C)[C@@H]1C(=O)N[C@@H](C)C(=O)N[C@H](C(=O)NCC#N)Cc2ccc(OCCN)c(c2)-c2cc1ccc2OCCN (racemic) [Compound 464, rac-(8S,11S,14S)-3,18-bis(2-aminoethoxy)-N-(cyanomethyl)-11-methyl-14-[methyl-[rac-(2S)-4-amino-2-[[rac-(2S)-2-[[2-(4-tert-butylphenyl)-4,6-dimethyl-pyrimidine-5-carbonyl]amino]propanoyl]amino]butanoyl]amino]-10,13-dioxo-9,12-diazatricyclo[13.3.1.12,6]icosa-1(18),2(20),3,5,15(19),16-hexaene-8-carboxamide]"
